Tested on: 349418-098-R tumor spheroid viability
Test: Anticancer human tumor 349418-098-R patient-derived lung adenocarcinoma cell line growth inhibition
Details: spheroids with HUVEC and MSC; for IC50: curve of first compound; for viability, T/C: stronger effect = lower value
From the text: Multicellular complex tumor spheroid response to DNA repair inhibitors in combination with DNA-damaging drugs
This study explores the anticancer activities of DNA-damaging drugs and inhibitors of DNA damage repair, both as single agents and in combinations. Complex tumor spheroids comprised of malignant cells, endothelial cells and mesenchymal stem cells served as an in vitro model for human solid tumors. This model system incorporates physiologically relevant features and patient-derived or established malignant cell lines with clinically relevant genetic alterations from many tumor types. Twenty-six patient-derived or established malignant cell lines were evaluated representing sarcoma, melanoma, small cell lung cancer (SCLC), non-small cell lung cancer (NSCLC), as well as bladder, ovarian and pancreatic cancers. The concentration ranges selected for each drug and investigational agent were based upon clinically achievable concentrations if the clinical Cmax of the agent was known.
Compounds. The drugs and compounds olaparib (NSC753686), talazoparib (NSC767125), berzosertib (NSC777718), elimusertib (NSC800525), nedisertib (NSC802822), VX-984 (NSC792969), AZD-1390 (NSC803789), temozolomide (NSC362856), topotecan (NSC609699), trabectedin (NSC813783), staurosporine (NSC755774), and gemcitabine (NSC613327) were obtained from the National Cancer Institute (NCI) Developmental Therapeutics Program Chemical Repository. The FDA-approved anticancer drug set is available from the Developmental Therapeutics Program at https://dtp.cancer.gov/organization/dscb/obtaining/available_plates.htm. […] The stock solutions were prepared in dimethyl sulfoxide (DMSO, Sigma-Aldrich, St. Louis, MO, cat. D2650) at 400-fold the tested concentration and stored at -70 degrees C. Prior to their use, the stock solutions were diluted in fresh medium and the final DMSO concentration in the assay was 0.25% (v/v). All drugs and investigational agents were tested over a range starting from a high concentration at or near the clinical Cmax and decreasing in half-log increments. If the clinical Cmax for an agent had not been determined, the highest concentration tested was 10 microM.
Cell Lines. The patient-derived cancer cell (PDC) lines: 156681-154-R-J1-PDC, 283228-195-R-J1-PDC, 287954-098-R-J1-PDC, 292921-168-R-J2-PDC, 349418-098-R-PDC, 425362-245-T-J1-PDC, 556581-035-R-J1-PDC, and BL0293-F563-PDC were received from the NCI Patient-Derived Models Repository (PDMR, https://pdmr.cancer.gov). The established cell lines HS-SY-2 (RRID:CVCL_8719), MPNST, and SYO-1 (RRID:CVCL_7146) were obtained from the Sloan Kettering Institute. The alveolar soft parts sarcoma cell line ASPS-1 (RRID:CVCL_S738) was established at the NCI and grown from internal seed stocks. The following established cell lines were purchased from the American Type Culture Collection (ATCC, Manassas, VA): G-401 (ATCC, cat. CRL-1441, RRID:CVCL_0270), SW982 (ATCC, cat. HTB-93, RRID:CVCL_1734), VA-ES-BJ (ATCC, cat. CRL-2138, RRID:CVCL_1785), NCI-H719 (ATCC, cat. CRL-5837, RRID:CVCL_1582), NCI-H196 (ATCC, cat. CRL-5823, RRID:CVCL_1509), NCI-H841 (ATCC, cat. CRL-5845, RRID:CVCL_1595), NCI-H1618 (ATCC, cat. CRL-5879, RRID:CVCL_1480), NCI-H1876 (ATCC, cat. CRL-5902, RRID:CVCL_1503), DMS 114 (ATCC, cat. CRL-2066; RRID:CVCL_1174), NCI-H211 (ATCC, cat. CRL-5824; RRID:CVCL_1529), and SW 1271 (ATCC, cat. CRL-2177, RRID:CVCL_1716). The small cell lung cancer cell line COR-L88 was purchased from Sigma-Aldrich (cat. 92031917-1VL, RRID:CVCL_1141). The non-small cell lung cancer cell lines NCI-H226 (RRID:CVCL_1544) and NCI-H322M (RRID:CVCL_1557) were established at the NCI and grown from internal seed stocks. Pooled donor human umbilical vein endothelial cells (HUVEC, Lonza, cat. CC-2519) and human mesenchymal stem cells (hMSC, Lonza, cat. PT-2501) were purchased from Lonza (Walkersville, MD).
Cell Culture. All cells were maintained in an incubator at 37 degrees C and 5% CO2 with 95% humidity. […]

[1] = second compound 0.003 µM, first compound 0.00949 µM
[2] = second compound 0.003 µM, first compound 0.03 µM
[3] = second compound 0.003 µM, first compound 0.0949 µM
[4] = second compound 0.003 µM, first compound 0.3 µM
[5] = second compound 0.003 µM, first compound 0.949 µM
[6] = second compound 0.003 µM, first compound 3 µM
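Further: spheroids exposed to compound for 7 days before measurement.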
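Wherever viability, T/C is given: percent of vehicle control viability with 100% = DMSO-treated spheroids.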

In the case of `Cc1sc2c(c1C)C(c1ccc(Cl)cc1)=NC(CC(=O)Nc1ccc(O)cc1)c1nnc(C)n1-2` (stereo not given) + COc1cc2c(cc1O)CCNC21CSC2c3c(OC(C)=O)c(C)c4c(c3C(COC1=O)N1C(O)C3Cc5cc(C)c(OC)c(O)c5C(C21)N3C)OCO4, the IC50 (second compound 30 pM) is reported as 0.142 µM, the IC50 (second compound 94.9 pM) is reported as 0.104 µM and the IC50 (second compound 0.0003 µM) is reported as 0.0392 µM. The IC50 (second compound 0.000949 µM) was under 0.00949 µM, the IC50 (second compound 0.003 µM) was under 0.00949 µM and the viability, T/C (second compound 30 pM, first compound 0.00949 µM) was 97.4%. It also gave a viability, T/C (second compound 30 pM, first compound 0.03 µM) of 101%, a viability, T/C (second compound 30 pM, first compound 0.0949 µM) of 63.3% and a viability, T/C (second compound 30 pM, first compound 0.3 µM) of 22.3%. It also gave a viability, T/C (second compound 30 pM, first compound 0.949 µM) of 3.92%, a viability, T/C (second compound 30 pM, first compound 3 µM) of 0.75% and a viability, T/C (second compound 94.9 pM, first compound 0.00949 µM) of 99.1%. For the same compound, the viability, T/C (second compound 94.9 pM, first compound 0.03 µM) was 104%, the viability, T/C (second compound 94.9 pM, first compound 0.0949 µM) was 53.6% and the viability, T/C (second compound 94.9 pM, first compound 0.3 µM) was 7.33%. The viability, T/C (second compound 94.9 pM, first compound 0.949 µM) was 1.23%, the viability, T/C (second compound 94.9 pM, first compound 3 µM) was 0.57% and the viability, T/C (second compound 0.0003 µM, first compound 0.00949 µM) was 87.3%. The viability, T/C (second compound 0.0003 µM, first compound 0.03 µM) was 56%, the viability, T/C (second compound 0.0003 µM, first compound 0.0949 µM) was 28.3% and the viability, T/C (second compound 0.0003 µM, first compound 0.3 µM) was 4.02%. It also gave a viability, T/C (second compound 0.0003 µM, first compound 0.949 µM) of 0.43%, a viability, T/C (second compound 0.0003 µM, first compound 3 µM) of 0.38% and a viability, T/C (second compound 0.000949 µM, first compound 0.00949 µM) of 0.25%. For the same compound, the viability, T/C (second compound 0.000949 µM, first compound 0.03 µM) was 0.35%, the viability, T/C (second compound 0.000949 µM, first compound 0.0949 µM) was 0.19% and the viability, T/C (second compound 0.000949 µM, first compound 0.3 µM) was 0.18%. For the same compound, the viability, T/C (second compound 0.000949 µM, first compound 0.949 µM) was 0.18%, the viability, T/C (second compound 0.000949 µM, first compound 3 µM) was 0.57% and the viability, T/C [1] was 1.49%. The viability, T/C [2] was 1.62%, the viability, T/C [3] was 1.47% and the viability, T/C [4] was 1.59%. It also gave a viability, T/C [5] of 2.52% and a viability, T/C [6] of 3.49%.
For `Cn1ncnc1[C@H]1c2n[nH]c(=O)c3cc(F)cc(c23)N[C@@H]1c1ccc(F)cc1` + CC[C@@]1(O)C(=O)OCc2c1cc1n(c2=O)Cc2cc3c(CN(C)C)c(O)ccc3nc2-1, the IC50 (second compound 0.003 µM) was 1.62 µM, the IC50 (second compound 0.00949 µM) was 1.1 µM and the IC50 (second compound 0.03 µM) was 0.0539 µM. For the same compound, the IC50 (second compound 0.0949 µM) was under 0.00949 µM, the IC50 (second compound 0.3 µM) was under 0.00949 µM and the viability, T/C [1] was 93.6%. It also gave a viability, T/C [2] of 97.7%, a viability, T/C [3] of 91.4% and a viability, T/C [4] of 96.6%. It also gave a viability, T/C [5] of 83.3%, a viability, T/C [6] of 11.1% and a viability, T/C (second compound 0.00949 µM, first compound 0.00949 µM) of 100%. It also gave a viability, T/C (second compound 0.00949 µM, first compound 0.03 µM) of 97.6%, a viability, T/C (second compound 0.00949 µM, first compound 0.0949 µM) of 90.8% and a viability, T/C (second compound 0.00949 µM, first compound 0.3 µM) of 92.6%. It also gave a viability, T/C (second compound 0.00949 µM, first compound 0.949 µM) of 56.1%, a viability, T/C (second compound 0.00949 µM, first compound 3 µM) of 7.96% and a viability, T/C (second compound 0.03 µM, first compound 0.00949 µM) of 63.4%. For the same compound, the viability, T/C (second compound 0.03 µM, first compound 0.03 µM) was 59.5%, the viability, T/C (second compound 0.03 µM, first compound 0.0949 µM) was 41.3% and the viability, T/C (second compound 0.03 µM, first compound 0.3 µM) was 31.1%. The viability, T/C (second compound 0.03 µM, first compound 0.949 µM) was 18.3%, the viability, T/C (second compound 0.03 µM, first compound 3 µM) was 2.95% and the viability, T/C (second compound 0.0949 µM, first compound 0.00949 µM) was 13.1%. It also gave a viability, T/C (second compound 0.0949 µM, first compound 0.03 µM) of 9.39%, a viability, T/C (second compound 0.0949 µM, first compound 0.0949 µM) of 12.7% and a viability, T/C (second compound 0.0949 µM, first compound 0.3 µM) of 8.01%. The viability, T/C (second compound 0.0949 µM, first compound 0.949 µM) was 5.35%, the viability, T/C (second compound 0.0949 µM, first compound 3 µM) was 1.86% and the viability, T/C (second compound 0.3 µM, first compound 0.00949 µM) was 3.53%. For the same compound, the viability, T/C (second compound 0.3 µM, first compound 0.03 µM) was 3.12%, the viability, T/C (second compound 0.3 µM, first compound 0.0949 µM) was 3.64% and the viability, T/C (second compound 0.3 µM, first compound 0.3 µM) was 3.26%. It also gave a viability, T/C (second compound 0.3 µM, first compound 0.949 µM) of 2.39% and a viability, T/C (second compound 0.3 µM, first compound 3 µM) of 1.17%.

Reference: PubChem BioAssay AID1845197 (Molecular Pharmacology Branch, DTP, NCI, 2023)
